Results taken from US12472182B2, “Compositions comprising regulatory t cells and methods of making and using the same” (Cellenkos, Inc., priority 2019, dated 2025).

Assays:
[1] = test system: interferon (IFN)-gamma released by SLE-PBMC; experiment: IFN-gamma release by pathogenic lupus cells; type: cell-based, human; settings: control, non-specific inflammatory stimulus
Text: FIG. 32 is a bar graph depicting the amount of interferon (IFN)-gamma released by pathogenic lupus cells in the presence or absence of combinations of (1) activated Treg cells; (2) ruxolitinib; and/or (3) camptothecin. Rux=ruxolitinib. SLE-PBMC=peripheral blood mononuclear cells derived from subjects with systemic lupus erythematosus. D6=Day 6.

[2] = test system: xenogeneic mouse graft versus host disease (GVHD) model; settings: in vivo
Procedure: FIG. 33 depicts a schematic for treatment of a xenogeneic mouse graft versus host disease (GVHD) model with a ruxolitinib and activated Treg cells regimen. PBMC=peripheral blood mononuclear cells.
A xenogeneic mouse graft versus host disease (GVHD) model was treated with a ruxolitinib and activated CB Treg cells regimen, as depicted in FIG. 33. NSG mice underwent sublethal irradiation on day −1 followed by injection of 1×10^7 donor peripheral blood (PB) mononuclear cells (MNCs) on day 0. Oral ruxolitinib at 1 mg daily was fed continuously to the mice in the presence or absence of 1×10^7 CB Treg cells, tagged with CellTrace™ Violet dye (ThermoFisher), administered on days +4, +7, +11, +18. Mice were followed every other day for weight, GVHD score and survival. Serial blood draws were performed to analyze for cell compartment and cytokine assays.

Compound	IFNγ secretion from CB Treg cells [1]	CB Treg persistence [2]
CC[C@@]1(O)C(=O)OCc2c1cc1n(c2=O)Cc2cc3ccccc3nc2-1 [Camptothecin]	does not increase IFNγ secretion	–
N#CC[C@H](C1CCCC1)n1cc(-c2ncnc3[nH]ccc23)cn1 [ruxolitinib]	–	improved CB Treg persistence
